Laboratory results: PMC6639057 (Investigational new drugs, 2018)
Several values for one entry are separate records, joined by “and”; a condition that tells them apart may be missing. Equal values may be shown once.

System: patients with advanced solid tumors
Assay: Adverse events
[1] = all patients, dose escalation and dose expansion (N = 105)
[2] = escalation 30 mg + G-CSF (n = 6)
[3] = escalation 35 mg + G-CSF (n = 3)

In the case of `Cc1csc(-c2nnc(Nc3ccc(Oc4ncccc4-c4ccnc(N)n4)cc3)c3ccccc23)c1` [AMG 900], the “AEs leading to discontinuation of AMG 900” value (shortened to “AEs leading”) (Total (N = 105)) is reported as 25 (24) n (%), the “All treatment-emergent AEs” value (Total (N = 105)) is reported as 105 (100) n (%) and the “All treatment-related AEs” value (Total (N = 105)) is reported as 98 (93) n (%). For the same compound, the “Fatal AEs” value (Total (N = 105)) was 5 (5) n (%), the “Grade ≥ 3 AEs” value (Total (N = 105)) was 79 (75) n (%) and the “Grade ≥ 3 treatment-related AEs” value (Total (N = 105)) was 61 (58) n (%). The “Grade ≥ 3 treatment-related AEs: Anemia” value (Total (N = 105)) was 24 (23) n (%), the “Grade ≥ 3 treatment-related AEs: Diarrhea” value (Total (N = 105)) was 4 (4) n (%) and the “Grade ≥ 3 treatment-related AEs: Fatigue” value (Total (N = 105)) was 5 (5) n (%). The “Grade ≥ 3 treatment-related AEs: Febrile neutropenia” value (Total (N = 105)) was 10 (10) n (%), the “Grade ≥ 3 treatment-related AEs: Hemoglobin decreased” value (Total (N = 105)) was 4 (4) n (%) and the “Grade ≥ 3 treatment-related AEs: Leukopenia” value (Total (N = 105)) was 15 (14) n (%). The “Grade ≥ 3 treatment-related AEs: Lymphopenia” value (Total (N = 105)) was 4 (4) n (%), the “Grade ≥ 3 treatment-related AEs: Nausea” value (Total (N = 105)) was 3 (3) n (%) and the “Grade ≥ 3 treatment-related AEs: Neutropenia” value (Total (N = 105)) was 44 (42) n (%). For the same compound, the “Grade ≥ 3 treatment-related AEs: Thrombocytopenia” value (Total (N = 105)) was 13 (12) n (%), the “Grade ≥ 3 treatment-related AEs: Vomiting” value (Total (N = 105)) was 2 (2) n (%) and the “Grade ≥ 3 treatment-related AEs: White blood cell count decreased” value (Total (N = 105)) was 2 (2) n (%). For the same compound, the “Grade ≥ 4 AEs” value (Total (N = 105)) was 40 (38) n (%), the “Serious AEs” value (Total (N = 105)) was 39 (37) n (%) and the “Treatment-related AEs that led to discontinuation of AMG 900” value (all patients (13 patients)) was 12%. For the same compound, the “Treatment-related grade ≥ 4 AEs” value (all patients (31 patients)) was 30%, the “Dose reductions or interruptions due to AEs” value (all patients (47 patients)) was 45% and the “Dose reductions or interruptions” value (all patients (51 patients)) was 49%. For the same compound, the “Treatment-related grade ≥ 3 AEs” value (all patients (61 patients)) was 58%, the “Fatal AEs” value (all patients (five patients)) was 5% and the “Grade ≥ 4 diarrhea (only nonhematologic grade ≥ 4 AE)” value (all patients (n = 1)) was 1%. For the same compound, the “Treatment-related grade ≥ 4 leukopenia” value (all patients (n = 12)) was 11%, the “Discontinuation of AMG 900 due to AEs” value (all patients (n = 25), data cutoff December 31, 2014) was 24% and the “Treatment-related grade ≥ 4 neutropenia” value (all patients (n = 30)) was 29%. For the same compound, the “Grade ≥ 3 treatment-related anemia” value [1] was 23%, the “Grade ≥ 3 treatment-related leukopenia” value [1] was 14% and the “Grade ≥ 3 treatment-related neutropenia” value [1] was 37% and 42%. For the same compound, the “Grade ≥ 3 treatment-related thrombocytopenia” value [1] was 12%, the “Relation of fatal AEs to treatment” value (as judged by the investigator) was “none of the fatal AEs were considered treatment related” and the “AEs leading” value (escalation 16 mg (n = 3)) was 0 n (%). The “All treatment-emergent AEs” value (escalation 16 mg (n = 3)) was 3 (100) n (%), the “All treatment-related AEs” value (escalation 16 mg (n = 3)) was 3 (100) n (%) and the “Fatal AEs” value (escalation 16 mg (n = 3)) was 0 n (%). The “Grade ≥ 3 AEs” value (escalation 16 mg (n = 3)) was 1 (33) n (%), the “Grade ≥ 3 treatment-related AEs” value (escalation 16 mg (n = 3)) was 1 (33) n (%) and the “Grade ≥ 3 treatment-related AEs: Anemia” value (escalation 16 mg (n = 3)) was 1 (33) n (%). For the same compound, the “Grade ≥ 3 treatment-related AEs: Diarrhea” value (escalation 16 mg (n = 3)) was 0 n (%), the “Grade ≥ 3 treatment-related AEs: Fatigue” value (escalation 16 mg (n = 3)) was 0 n (%) and the “Grade ≥ 3 treatment-related AEs: Febrile neutropenia” value (escalation 16 mg (n = 3)) was 0 n (%). The “Grade ≥ 3 treatment-related AEs: Hemoglobin decreased” value (escalation 16 mg (n = 3)) was 0 n (%), the “Grade ≥ 3 treatment-related AEs: Leukopenia” value (escalation 16 mg (n = 3)) was 1 (33) n (%) and the “Grade ≥ 3 treatment-related AEs: Lymphopenia” value (escalation 16 mg (n = 3)) was 0 n (%). For the same compound, the “Grade ≥ 3 treatment-related AEs: Nausea” value (escalation 16 mg (n = 3)) was 0 n (%), the “Grade ≥ 3 treatment-related AEs: Neutropenia” value (escalation 16 mg (n = 3)) was 1 (33) n (%) and the “Grade ≥ 3 treatment-related AEs: Thrombocytopenia” value (escalation 16 mg (n = 3)) was 0 n (%). The “Grade ≥ 3 treatment-related AEs: Vomiting” value (escalation 16 mg (n = 3)) was 0 n (%), the “Grade ≥ 3 treatment-related AEs: White blood cell count decreased” value (escalation 16 mg (n = 3)) was 0 n (%) and the “Grade ≥ 4 AEs” value (escalation 16 mg (n = 3)) was 1 (33) n (%). The “Serious AEs” value (escalation 16 mg (n = 3)) was 0 n (%), the “AEs leading” value (escalation 24 mg (n = 6)) was 1 (17) n (%) and the “All treatment-emergent AEs” value (escalation 24 mg (n = 6)) was 6 (100) n (%). The “All treatment-related AEs” value (escalation 24 mg (n = 6)) was 5 (83) n (%), the “Fatal AEs” value (escalation 24 mg (n = 6)) was 0 n (%) and the “Grade ≥ 3 AEs” value (escalation 24 mg (n = 6)) was 5 (83) n (%). For the same compound, the “Grade ≥ 3 treatment-related AEs” value (escalation 24 mg (n = 6)) was 5 (83) n (%), the “Grade ≥ 3 treatment-related AEs: Anemia” value (escalation 24 mg (n = 6)) was 0 n (%) and the “Grade ≥ 3 treatment-related AEs: Diarrhea” value (escalation 24 mg (n = 6)) was 0 n (%). The “Grade ≥ 3 treatment-related AEs: Fatigue” value (escalation 24 mg (n = 6)) was 0 n (%), the “Grade ≥ 3 treatment-related AEs: Febrile neutropenia” value (escalation 24 mg (n = 6)) was 0 n (%) and the “Grade ≥ 3 treatment-related AEs: Hemoglobin decreased” value (escalation 24 mg (n = 6)) was 0 n (%). The “Grade ≥ 3 treatment-related AEs: Leukopenia” value (escalation 24 mg (n = 6)) was 2 (33) n (%), the “Grade ≥ 3 treatment-related AEs: Lymphopenia” value (escalation 24 mg (n = 6)) was 1 (17) n (%) and the “Grade ≥ 3 treatment-related AEs: Nausea” value (escalation 24 mg (n = 6)) was 0 n (%). For the same compound, the “Grade ≥ 3 treatment-related AEs: Neutropenia” value (escalation 24 mg (n = 6)) was 4 (67) n (%), the “Grade ≥ 3 treatment-related AEs: Thrombocytopenia” value (escalation 24 mg (n = 6)) was 0 n (%) and the “Grade ≥ 3 treatment-related AEs: Vomiting” value (escalation 24 mg (n = 6)) was 0 n (%). For the same compound, the “Grade ≥ 3 treatment-related AEs: White blood cell count decreased” value (escalation 24 mg (n = 6)) was 0 n (%), the “Grade ≥ 4 AEs” value (escalation 24 mg (n = 6)) was 3 (50) n (%) and the “Serious AEs” value (escalation 24 mg (n = 6)) was 1 (17) n (%). The “AEs leading” value (escalation 25 mg (n = 7)) was 2 (29) n (%), the “All treatment-emergent AEs” value (escalation 25 mg (n = 7)) was 7 (100) n (%) and the “All treatment-related AEs” value (escalation 25 mg (n = 7)) was 5 (71) n (%). For the same compound, the “Fatal AEs” value (escalation 25 mg (n = 7)) was 1 (14) n (%), the “Grade ≥ 3 AEs” value (escalation 25 mg (n = 7)) was 3 (43) n (%) and the “Grade ≥ 3 treatment-related AEs” value (escalation 25 mg (n = 7)) was 2 (29) n (%). The “Grade ≥ 3 treatment-related AEs: Anemia” value (escalation 25 mg (n = 7)) was 2 (29) n (%), the “Grade ≥ 3 treatment-related AEs: Diarrhea” value (escalation 25 mg (n = 7)) was 0 n (%) and the “Grade ≥ 3 treatment-related AEs: Fatigue” value (escalation 25 mg (n = 7)) was 0 n (%). The “Grade ≥ 3 treatment-related AEs: Febrile neutropenia” value (escalation 25 mg (n = 7)) was 0 n (%), the “Grade ≥ 3 treatment-related AEs: Hemoglobin decreased” value (escalation 25 mg (n = 7)) was 1 (14) n (%) and the “Grade ≥ 3 treatment-related AEs: Leukopenia” value (escalation 25 mg (n = 7)) was 1 (14) n (%). The “Grade ≥ 3 treatment-related AEs: Lymphopenia” value (escalation 25 mg (n = 7)) was 0 n (%), the “Grade ≥ 3 treatment-related AEs: Nausea” value (escalation 25 mg (n = 7)) was 0 n (%) and the “Grade ≥ 3 treatment-related AEs: Neutropenia” value (escalation 25 mg (n = 7)) was 1 (14) n (%). For the same compound, the “Grade ≥ 3 treatment-related AEs: Thrombocytopenia” value (escalation 25 mg (n = 7)) was 0 n (%), the “Grade ≥ 3 treatment-related AEs: Vomiting” value (escalation 25 mg (n = 7)) was 0 n (%) and the “Grade ≥ 3 treatment-related AEs: White blood cell count decreased” value (escalation 25 mg (n = 7)) was 0 n (%). The “Grade ≥ 4 AEs” value (escalation 25 mg (n = 7)) was 2 (29) n (%), the “Serious AEs” value (escalation 25 mg (n = 7)) was 1 (14) n (%) and the “AEs leading” value (escalation 30 mg (n = 6)) was 4 (67) n (%). The “All treatment-emergent AEs” value (escalation 30 mg (n = 6)) was 6 (100) n (%), the “All treatment-related AEs” value (escalation 30 mg (n = 6)) was 6 (100) n (%) and the “Fatal AEs” value (escalation 30 mg (n = 6)) was 0 n (%). The “Grade ≥ 3 AEs” value (escalation 30 mg (n = 6)) was 6 (100) n (%), the “Grade ≥ 3 treatment-related AEs” value (escalation 30 mg (n = 6)) was 4 (67) n (%) and the “Grade ≥ 3 treatment-related AEs: Anemia” value (escalation 30 mg (n = 6)) was 0 n (%). For the same compound, the “Grade ≥ 3 treatment-related AEs: Diarrhea” value (escalation 30 mg (n = 6)) was 0 n (%), the “Grade ≥ 3 treatment-related AEs: Fatigue” value (escalation 30 mg (n = 6)) was 0 n (%) and the “Grade ≥ 3 treatment-related AEs: Febrile neutropenia” value (escalation 30 mg (n = 6)) was 0 n (%). The “Grade ≥ 3 treatment-related AEs: Hemoglobin decreased” value (escalation 30 mg (n = 6)) was 0 n (%), the “Grade ≥ 3 treatment-related AEs: Leukopenia” value (escalation 30 mg (n = 6)) was 3 (50) n (%) and the “Grade ≥ 3 treatment-related AEs: Lymphopenia” value (escalation 30 mg (n = 6)) was 0 n (%). For the same compound, the “Grade ≥ 3 treatment-related AEs: Nausea” value (escalation 30 mg (n = 6)) was 0 n (%), the “Grade ≥ 3 treatment-related AEs: Neutropenia” value (escalation 30 mg (n = 6)) was 4 (67) n (%) and the “Grade ≥ 3 treatment-related AEs: Thrombocytopenia” value (escalation 30 mg (n = 6)) was 1 (17) n (%). For the same compound, the “Grade ≥ 3 treatment-related AEs: Vomiting” value (escalation 30 mg (n = 6)) was 0 n (%), the “Grade ≥ 3 treatment-related AEs: White blood cell count decreased” value (escalation 30 mg (n = 6)) was 0 n (%) and the “Grade ≥ 4 AEs” value (escalation 30 mg (n = 6)) was 6 (100) n (%). For the same compound, the “Serious AEs” value (escalation 30 mg (n = 6)) was 3 (50) n (%), the “AEs leading” value [2] was 1 (17) n (%) and the “All treatment-emergent AEs” value [2] was 6 (100) n (%). The “All treatment-related AEs” value [2] was 6 (100) n (%), the “Fatal AEs” value [2] was 0 n (%) and the “Grade ≥ 3 AEs” value [2] was 5 (83) n (%). For the same compound, the “Grade ≥ 3 treatment-related AEs” value [2] was 3 (50) n (%), the “Grade ≥ 3 treatment-related AEs: Anemia” value [2] was 1 (17) n (%) and the “Grade ≥ 3 treatment-related AEs: Diarrhea” value [2] was 0 n (%). The “Grade ≥ 3 treatment-related AEs: Fatigue” value [2] was 0 n (%), the “Grade ≥ 3 treatment-related AEs: Febrile neutropenia” value [2] was 0 n (%) and the “Grade ≥ 3 treatment-related AEs: Hemoglobin decreased” value [2] was 0 n (%). The “Grade ≥ 3 treatment-related AEs: Leukopenia” value [2] was 2 (33) n (%), the “Grade ≥ 3 treatment-related AEs: Lymphopenia” value [2] was 0 n (%) and the “Grade ≥ 3 treatment-related AEs: Nausea” value [2] was 0 n (%). The “Grade ≥ 3 treatment-related AEs: Neutropenia” value [2] was 3 (50) n (%), the “Grade ≥ 3 treatment-related AEs: Thrombocytopenia” value [2] was 2 (33) n (%) and the “Grade ≥ 3 treatment-related AEs: Vomiting” value [2] was 0 n (%). For the same compound, the “Grade ≥ 3 treatment-related AEs: White blood cell count decreased” value [2] was 0 n (%), the “Grade ≥ 4 AEs” value [2] was 2 (33) n (%) and the “Serious AEs” value [2] was 3 (50) n (%). The “AEs leading” value [3] was 0 n (%) and the “All treatment-emergent AEs” value [3] was 3 (100) n (%).
